Measurements reported in patent publication US8952024B2, “Herbicidal pyrimidone derivatives” (E I du Pont de Nemours and Company, priority 2009, dated 2015).

How the values were obtained:
Test in all cases: Test D pre-/postemergence plant response
Type in all cases: in vivo
[1] = tested on: sowthistle (common sowthistle, Sonchus oleraceous)
Procedure, shortened: (§1)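 Visual 0–100 scoring (100 = complete control) versus untreated controls after 14–21 greenhouse days. Compounds, formulated in surfactant-containing non-phytotoxic solvent, were applied preemergence to seeded loam/sand and postemergence to 2–18 cm plants (1–4 leaves).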

[2] = tested on: morningglory (pitted morningglory, Ipomoea lacunosa)
Procedure, shortened: as §1

[3] = tested on: guineagrass (Panicum maximum)
Procedure, shortened: as §1

[4] = tested on: chickweed (common chickweed, Stellaria media); details: Postemergence, 31 g ai/ha; scale 0 to 100
Procedure, shortened: as §1

[5] = tested on: large crabgrass (Digitaria sanguinalis)
Procedure, shortened: as §1

[6] = tested on: bermudagrass (Cynodon dactylon)
Procedure, shortened: as §1

[7] = tested on: Surinam grass (Brachiaria decumbens)
Procedure, shortened: as §1

[8] = tested on: purslane (common purslane, Portulaca oleracea)
Procedure, shortened: as §1

[9] = tested on: groundsel (common groundsel, Senecio vulgaris); details: Postemergence
Procedure, shortened: as §1

[10] = tested on: signalgrass (broadleaf signalgrass, Brachiaria platyphylla)
Procedure, shortened: as §1

[11] = tested on: naked crabgrass (Digitaria nuda)
Procedure, shortened: as §1

[12] = tested on: black mustard (Brassica nigra)
Procedure, shortened: as §1

[13] = tested on: field bindweed (Convolvulus arvensis)
Procedure, shortened: as §1

[14] = tested on: nutsedge (purple nutsedge, Cyperus rotundus)
Procedure, shortened: as §1

[15] = tested on: quackgrass (Elytrigia repens)
Procedure, shortened: as §1

[16] = tested on: Italian ryegrass (Lolium multiflorum)
Procedure, shortened: as §1

[17] = tested on: Russian thistle (Salsola kali)
Procedure, shortened: as §1

[18] = Postemergence, 16 g ai/ha, scale 0 to 100
[19] = Postemergence, 31 g ai/ha, scale 0 to 100
[20] = Postemergence, 125 g ai/ha, scale 0 to 100 (0 no effect, 100 complete control)
[21] = Postemergence, 62 g ai/ha, scale 0 to 100 (0 no effect, 100 complete control)
[22] = Preemergence, 16 g ai/ha, scale 0 to 100, 0 no effect, 100 complete control
[23] = Preemergence, 31 g ai/ha, scale 0 to 100 (0 no effect, 100 complete control)
[24] = Preemergence, 125 g ai/ha, scale 0 to 100
[25] = Preemergence, 62 g ai/ha, scale 0 to 100

O=C1CCCC(O)=C1C(=O)c1cnc(-c2cccnc2)n(-c2ccccc2)c1=O [Compound 113, 5-[(2-hydroxy-6-oxo-1-cyclohexen-1-yl)carbonyl]-3-phenyl-2-(3-pyridinyl)-4(3H)-pyrimidone] was tested, and the “Plant response rating, Sowthistle” value [1, 18] was 90, the “Plant response rating, Sowthistle” value [1, 19] was 95 and the “Plant response rating, Sowthistle” value [1, 20] was 100. For the same molecule, the “Plant response rating, Sowthistle” value [1, 21] was 100, the “Plant response rating, Sowthistle” value [1, 22] was 50 and the “Plant response rating, Sowthistle” value [1, 23] was 75. For the same molecule, the “Plant response rating, Sowthistle” value [1, 24] was 100, the “Plant response rating, Morningglory” value [2, 18] was 50 and the “Plant response rating, Morningglory” value [2, 19] was 60. For the same molecule, the “Plant response rating, Morningglory” value [2, 20] was 90, the “Plant response rating, Morningglory” value [2, 21] was 90 and the “Plant response rating, Morningglory” value [2, 22] was 60. The “Plant response rating, Morningglory” value [2, 23] was 60, the “Plant response rating, Morningglory” value [2, 25] was 60 and the “Plant response rating, Morningglory” value [2, 24] was 90. The “Plant response rating, Guineagrass” value [3, 18] was 25, the “Plant response rating, Guineagrass” value [3, 19] was 25 and the “Plant response rating, Guineagrass” value [3, 20] was 70. For the same molecule, the “Plant response rating, Guineagrass” value [3, 21] was 50, the “Plant response rating, Guineagrass” value [3, 22] was 0 and the “Plant response rating, Guineagrass” value [3, 23] was 65. The “Plant response rating, Guineagrass” value [3, 25] was 100, the “Plant response rating, Guineagrass” value [3, 24] was 100 and the “Plant response rating, Chickweed” value [4] was 70. For the same molecule, the “Plant response rating, Crabgrass, Large” value [5, 18] was 60, the “Plant response rating, Crabgrass, Large” value [5, 19] was 60 and the “Plant response rating, Crabgrass, Large” value [5, 20] was 70. For the same molecule, the “Plant response rating, Crabgrass, Large” value [5, 21] was 70, the “Plant response rating, Crabgrass, Large” value [5, 22] was 20 and the “Plant response rating, Crabgrass, Large” value [5, 23] was 30. The “Plant response rating, Crabgrass, Large” value [5, 25] was 95, the “Plant response rating, Crabgrass, Large” value [5, 24] was 95 and the “Plant response rating, Bermudagrass” value [6, 18] was 65. The “Plant response rating, Bermudagrass” value ([6]; Postemergence, 31 g ai/ha, scale 0 to 100 (0 no effect, 100 complete control)) was 70, the “Plant response rating, Bermudagrass” value [6, 20] was 80 and the “Plant response rating, Bermudagrass” value [6, 21] was 80. For the same molecule, the “Plant response rating, Bermudagrass” value [6, 22] was 50, the “Plant response rating, Bermudagrass” value [6, 23] was 50 and the “Plant response rating, Bermudagrass” value [6, 25] was 70. The “Plant response rating, Bermudagrass” value [6, 24] was 85, the “Plant response rating, Surinam Grass” value [7, 18] was 60 and the “Plant response rating, Surinam Grass” value [7, 19] was 75. For the same molecule, the “Plant response rating, Surinam Grass” value [7, 21] was 80, the “Plant response rating, Surinam Grass” value [7, 23] was 40 and the “Plant response rating, Surinam Grass” value [7, 24] was 95. The “Plant response rating, Purslane” value [8, 18] was 30, the “Plant response rating, Purslane” value [8, 19] was 30 and the “Plant response rating, Purslane” value [8, 20] was 75. The “Plant response rating, Purslane” value [8, 21] was 50, the “Plant response rating, Purslane” value [8, 22] was 90 and the “Plant response rating, Purslane” value [8, 23] was 100. The “Plant response rating, Purslane” value [8, 25] was 100, the “Plant response rating, Purslane” value [8, 24] was 100 and the “Plant response rating, Groundsel” value ([9]; 16 g ai/ha, scale 0 to 100) was 90. The “Plant response rating, Groundsel” value ([9]; 31 g ai/ha, scale 0 to 100) was 90, the “Plant response rating, Groundsel” value ([9]; 125 g ai/ha, scale 0 to 100 (0 no effect, 100 complete control)) was 100 and the “Plant response rating, Groundsel” value ([9]; 62 g ai/ha, scale 0 to 100 (0 no effect, 100 complete control)) was 100. The “Plant response rating, Signalgrass” value [10, 18] was 5, the “Plant response rating, Signalgrass” value [10, 19] was 40 and the “Plant response rating, Signalgrass” value [10, 20] was 75. The “Plant response rating, Signalgrass” value [10, 21] was 60, the “Plant response rating, Signalgrass” value [10, 22] was 0 and the “Plant response rating, Signalgrass” value [10, 23] was 0. For the same molecule, the “Plant response rating, Signalgrass” value [10, 24] was 90, the “Plant response rating, Crabgrass, Naked” value [11, 18] was 50 and the “Plant response rating, Crabgrass, Naked” value [11, 19] was 65. The “Plant response rating, Crabgrass, Naked” value [11, 20] was 75, the “Plant response rating, Crabgrass, Naked” value [11, 21] was 70 and the “Plant response rating, Crabgrass, Naked” value [11, 22] was 0. The “Plant response rating, Crabgrass, Naked” value [11, 23] was 0, the “Plant response rating, Crabgrass, Naked” value [11, 25] was 90 and the “Plant response rating, Crabgrass, Naked” value [11, 24] was 100. For the same molecule, the “Plant response rating, Black Mustard” value [12, 18] was 100, the “Plant response rating, Black Mustard” value [12, 20] was 100 and the “Plant response rating, Black Mustard” value [12, 21] was 100. For the same molecule, the “Plant response rating, Black Mustard” value [12, 22] was 0, the “Plant response rating, Black Mustard” value [12, 23] was 0 and the “Plant response rating, Black Mustard” value [12, 25] was 80. The “Plant response rating, Black Mustard” value [12, 24] was 100, the “Plant response rating, Field Bindweed” value [13, 18] was 50 and the “Plant response rating, Field Bindweed” value [13, 19] was 65. The “Plant response rating, Field Bindweed” value [13, 21] was 65, the “Plant response rating, Field Bindweed” value [13, 22] was 0 and the “Plant response rating, Field Bindweed” value [13, 23] was 20. For the same molecule, the “Plant response rating, Field Bindweed” value [13, 25] was 65, the “Plant response rating, Field Bindweed” value [13, 24] was 90 and the “Plant response rating, Nutsedge, Purple” value [14, 18] was 0. For the same molecule, the “Plant response rating, Nutsedge, Purple” value [14, 19] was 10, the “Plant response rating, Nutsedge, Purple” value [14, 20] was 50 and the “Plant response rating, Nutsedge, Purple” value [14, 21] was 35. For the same molecule, the “Plant response rating, Nutsedge, Purple” value [14, 22] was 0, the “Plant response rating, Nutsedge, Purple” value [14, 23] was 10 and the “Plant response rating, Nutsedge, Purple” value [14, 25] was 20. The “Plant response rating, Nutsedge, Purple” value [14, 24] was 80, the “Plant response rating, Quackgrass” value [15, 18] was 0 and the “Plant response rating, Quackgrass” value [15, 19] was 0. The “Plant response rating, Quackgrass” value [15, 20] was 30, the “Plant response rating, Quackgrass” value [15, 21] was 20 and the “Plant response rating, Quackgrass” value [15, 22] was 0. For the same molecule, the “Plant response rating, Quackgrass” value [15, 23] was 0, the “Plant response rating, Quackgrass” value [15, 24] was 0 and the “Plant response rating, Ryegrass, Italian” value [16, 18] was 0. For the same molecule, the “Plant response rating, Ryegrass, Italian” value [16, 19] was 20, the “Plant response rating, Ryegrass, Italian” value [16, 20] was 50 and the “Plant response rating, Ryegrass, Italian” value [16, 21] was 35. For the same molecule, the “Plant response rating, Ryegrass, Italian” value [16, 22] was 0, the “Plant response rating, Ryegrass, Italian” value [16, 23] was 0 and the “Plant response rating, Ryegrass, Italian” value [16, 24] was 20. The “Plant response rating, Ryegrass, Italian” value ([16]; Preemergence, rate not given, scale 0 to 100, 0 no effect, 100 complete control) was 0, the “Plant response rating, Russian Thistle” value [17, 18] was 0 and the “Plant response rating, Russian Thistle” value [17, 19] was 0. The “Plant response rating, Russian Thistle” value [17, 20] was 20, the “Plant response rating, Russian Thistle” value [17, 21] was 20 and the “Plant response rating, Russian Thistle” value [17, 22] was 0. For the same molecule, the “Plant response rating, Russian Thistle” value [17, 23] was 65 and the “Plant response rating, Russian Thistle” value [17, 24] was 100.
